Assay results reported in ChEMBL document CHEMBL1127161, “Synthesis of a peptidyl 2,2-difluoro-4-phenylbutyl ketone and its evaluation as an inhibitor of interleukin-1 converting enzyme” (Bioorg Med Chem Lett, 1993).

Target: T1, Caspase-1 (Homo sapiens, UniProt P29466)
T1 sequence (P29466 whole entry): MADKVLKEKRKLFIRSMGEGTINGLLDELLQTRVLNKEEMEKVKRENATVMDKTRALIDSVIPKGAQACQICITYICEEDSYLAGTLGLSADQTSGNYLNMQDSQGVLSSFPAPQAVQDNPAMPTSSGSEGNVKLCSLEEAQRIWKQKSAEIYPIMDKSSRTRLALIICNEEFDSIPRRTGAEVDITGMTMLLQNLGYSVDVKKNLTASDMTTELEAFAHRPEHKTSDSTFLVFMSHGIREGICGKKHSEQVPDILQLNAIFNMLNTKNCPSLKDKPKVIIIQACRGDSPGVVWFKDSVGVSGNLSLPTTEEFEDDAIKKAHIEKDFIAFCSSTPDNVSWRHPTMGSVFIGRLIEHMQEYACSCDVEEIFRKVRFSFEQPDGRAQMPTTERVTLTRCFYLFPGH
Test: The compound was tested for its inhibitory activity against IL-1 beta converting enzyme

| Ki | Compound |
| --- | --- |
| 42 µM | CC(C)[C@H](NC(=O)CCCCc1ccccc1)C(=O)N[C@@H](C)C(=O)NC(CC(=O)O)C(=O)C(F)(F)CCCc1ccccc1 (some centres not stated) |
| 6 µM | CC(C)[C@H](NC(=O)CCc1ccccc1)C(=O)N[C@@H](C)C(=O)NC(CC(=O)O)C(=O)C(F)(F)CCCc1ccccc1 (some centres not stated) |
